{
  "source": "patent US20100286139A1",
  "about": "“AMINO PYRAZOLE COMPOUND” (ELI LILLY AND COMPANY, priority 2008, published 2010)",
  "target": "T1, JAK3 (Homo sapiens, UniProt P52333)",
  "T1 construct": "host or cells: NK-92 natural killer cells, IL-2-stimulated",
  "T1 sequence (P52333 1-1124)": "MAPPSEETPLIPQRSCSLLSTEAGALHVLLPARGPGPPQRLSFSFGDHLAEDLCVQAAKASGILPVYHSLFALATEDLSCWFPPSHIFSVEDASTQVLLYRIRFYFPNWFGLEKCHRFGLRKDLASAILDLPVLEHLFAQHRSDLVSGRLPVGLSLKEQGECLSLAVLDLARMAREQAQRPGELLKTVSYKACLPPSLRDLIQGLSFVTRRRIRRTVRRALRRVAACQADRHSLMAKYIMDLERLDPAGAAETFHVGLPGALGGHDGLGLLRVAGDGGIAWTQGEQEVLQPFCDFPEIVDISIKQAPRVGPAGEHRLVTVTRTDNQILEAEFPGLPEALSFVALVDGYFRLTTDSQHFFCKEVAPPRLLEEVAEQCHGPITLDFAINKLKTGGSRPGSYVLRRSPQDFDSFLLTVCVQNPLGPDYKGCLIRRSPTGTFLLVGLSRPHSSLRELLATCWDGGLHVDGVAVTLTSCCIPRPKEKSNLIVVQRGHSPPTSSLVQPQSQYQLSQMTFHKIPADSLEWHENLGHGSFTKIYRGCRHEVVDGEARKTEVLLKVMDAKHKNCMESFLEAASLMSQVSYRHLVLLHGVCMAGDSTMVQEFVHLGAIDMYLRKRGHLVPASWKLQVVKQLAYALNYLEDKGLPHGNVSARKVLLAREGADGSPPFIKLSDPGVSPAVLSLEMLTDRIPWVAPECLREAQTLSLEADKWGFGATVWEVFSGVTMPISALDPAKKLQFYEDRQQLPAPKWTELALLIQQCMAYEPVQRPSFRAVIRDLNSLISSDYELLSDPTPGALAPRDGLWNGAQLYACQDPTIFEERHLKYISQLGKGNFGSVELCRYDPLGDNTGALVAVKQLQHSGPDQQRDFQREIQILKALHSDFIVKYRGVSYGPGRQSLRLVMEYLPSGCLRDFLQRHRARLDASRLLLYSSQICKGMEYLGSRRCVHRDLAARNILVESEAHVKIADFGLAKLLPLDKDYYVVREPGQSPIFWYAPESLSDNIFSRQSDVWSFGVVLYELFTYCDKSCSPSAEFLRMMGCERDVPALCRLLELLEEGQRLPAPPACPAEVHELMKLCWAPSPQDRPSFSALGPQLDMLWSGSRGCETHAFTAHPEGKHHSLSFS",
  "assay": "JAK3 IL-2-NK-92/pSTAT5 cell-based assay (Cellomics ArrayScan HCS)",
  "text": "IL-2 activates the JAK3 pathway in natural killer (NK) cells to drive the NK and CD8 lymphocyte proliferation. Therefore, IL-2 stimulated NK92/pSTAT5 cell-based assay enables the evaluation of the JAK3 cellular activity of JAK2 compounds in vitro.\nNK-92 (natural killer) cells (ATCC, Manassas, Va.) are maintained in minimum essential medium (MEM) Alpha with 15% fetal bovine serum, 15% Horse Serum and 1× antibiotic/antimycotic (Invitrogen, Carlsbad, Calif.). The medium is supplemented with IL-2 (R&D systems, Minneapolis, Minn.) for a final concentration of 4 ng/mL. Cells are kept at 37° C. with 5% CO2. Cells are starved in serum free medium to remove endogenous growth factors. NK-92 cells are counted and collected to seed 2×10^7 cells per 96-well plate at a density of 2×10^5 cells per well. The cells are rinsed twice with unsupplemented MEM Alpha (MEM Alpha) before suspending cells at a final concentration of 8×10^5 cells/mL in MEM Alpha with 0.6% serum (0.3% FBS, 0.3% horse serum). […]\nTo perform the assay, serum-starved cells are collected and washed once with unsupplemented RPMI 1640 medium. […] An aliquot of 200 μL of 1 to 10 dilution of Mouse anti-pSTAT5 (pY694) Alexa Fluor 647® in fluorescence activated cell sorting (FACS) buffer is added to the cells. […] Mean fluorescent intensity data are collected and analyzed using Cellomics Arrayscan® VTi. […] The MSR is determined to be 2.06. […]",
  "data": [
    {"smiles": "Cc1cc(Nc2cc(CN3CCOCC3)c3nc(C)c(Cc4ccc(Cl)cc4F)n3n2)n[nH]1", "note": "[3-(4-Chloro-2-fluorobenzyl)-2-methyl-N-(5-methyl-1H-pyrazol-3-yl)-8-(morpholinomethyl)imidazo[1,2-b]pyridazin-6-amine]", "values": [
      {"measurement": "ratio of JAK3/JAK2 IC50", "setting": "JAK3 IL2-NK92-pSTAT5 IC50 over JAK2 EPO-TF1/pSTAT5 IC50", "result": 28.5, "unit": "fold"},
      {"measurement": "IC50", "setting": "NK-92 cells, IL-2 0.5 ng/mL stimulated, n=4, read-out: relative IC50, inhibition of pSTAT5", "result": 940, "unit": "nM"}
    ]}
  ]
}
